In one experiment the test system is rat ischemia model. Nature of the experiment: Middle cerebral artery occlusion (MCAo) model with reperfusion. It counts as in vivo, rat (male Long Evans hooded and male Sprague-Dawley). The conditions noted are these: i.v. infusion started 30 min before occlusion. As for the experimental part:
Middle Cerebral Artery Occlusion (MCAo) Model with Reperfusion
A 3-vessel rat ischemia model similar to those that have been extensively described in the literature (e.g. Stroke 17, 738-743 (1986), Stroke 20, 513-518 (1989)) was utilized. Under isoflurane anesthesia the right middle cerebral artery (via an approach through the temporalis muscle) and both common carotid arteries were reversibly occluded for varying durations between 60 minutes and 120 minutes. Both male Long Evans hooded rats and male Sprague-Dawley rats weighing between 300 and 420 grams were used. The animals' temperature was maintained throughout the study with heat lamps. A femoral vein and the ipsilateral femoral artery were cannulated for intravenous infusion and arterial blood pressure measurements and blood samples. Infusions of the test compounds were initiated 30 minutes prior to occlusion at a rate of 40 microliters per minute. After reinitiation of blood flow the animals were allowed to regain consciousness. Six hours post-initiation of ischemia the animals were sacrificed and the extent of neuronal damage was quantified with TTC staining. The results are expressed as a percent inhibition (±SEM) of infarct and penumbra region.

The next experiment has as its target PCP receptor. The experiment is described as follows: [3H]TCP radioreceptor assay (binding to PCP recognition sites). Further details: species or system rat (male Sprague-Dawley, whole brain). The settings on record: for Ki: [3H]TCP approx. 1 nM, rat brain membranes, mean of at least two determinations. In short, it runs like this: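 Rat whole-brain membranes (Tris-HCl, pH 7.7), 0.5 mg protein/tube, incubated with ~1 nM [3H]TCP for 25 min at room temperature; non-specific binding defined with 100 μM PCP. Bound ligand collected by filtration and counted by scintillation; Ki from at least two determinations, or % inhibition at 10 μM.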

Experiment [1] has as its system cultured cortical neurons. The experiment is described as follows: Antagonism of NMDA-induced neurotoxicity in cultured cortical neurons (LDH release). The format is cell-based, mouse (Swiss-Webster). The settings on record: 500 μM NMDA, 30 min exposure, LDH 24 h later. Here is the method: Antagonism of NMDA-induced Neurotoxicity in Cultured Neurons
Preparation of Cultured Cortical Neurons
Pregnant, Swiss-Webster mice were obtained from Taconic Farms (Germantown, New York) and sacrificed 16 days post conception. Fetuses were removed and placed in a sterile dish containing Hank's balanced salt solution (HBSS), pH 7.4. Brain cortices were dissected, meninges were removed, the tissue was minced and placed into a solution of HBSS containing 0.25% (w/v) trypsin at 37° C. for 15 minutes. Tissue was then triturated with a sterile pasteur pipet, diluted with minimal essential media (Gibco 330-1430), pH 7.4, supplemented with 10% horse serum, 10% fetal calf serum, 2 mM 1-glutamine, 21 mM d-glucose, 2.2 g/L sodium bicarbonate, 1000 U/mL penicillin, and 1,000 μg/mL streptomycin. Cells were plated onto Falcon primaria 96 well plates at a final density of 50,000 cells/well and incubated at 37 °C in the presence of 5% (v/v) carbon dioxide. After 5 days, plating media was replaced with maintenance media containing minimal essential media (Gibco 330-1430), pH 7.4, supplemented with 10% horse serum, […], 21 mM d-glucose, 2.2 g/L sodium bicarbonate, 1,000 U/mL penicillin, 1,000 μg/mL streptomycin, and 10 μM cytosine arabinoside. On days 7 and 10, media was replaced with maintenance media as above lacking the cytosine arabinoside. Experiments were conducted on day 13.
Neuroprotection Assessment
Day 13 cultured cortical neurons were washed twice with minimal essential media, pH 7.4 and then exposed for 30 minutes to 500 μM N-methyl-D-aspartic acid (NMDA) with or without varying concentrations of test agents. […] MK-801 and test agents were prepared in minimal essential media supplemented with 21 mM d-glucose and 2.2 g/L sodium bicarbonate (MEM). After 30 minutes, media was replaced with MEM alone. Exposure of neurons to test agents was limited to the NMDA treatment period. Twenty-four hours after removal of NMDA, an aliquot of media from each well was removed for assessment of cell injury by determining lactate dehydrogenase (LDH) activity by the method of Wroblewski and LaDue Proc. Soc. Exp. Biol. Med. 1955, 90, 210-213. The results are expressed as an IC50 (in nM) value (concentration causing 50% inhibition) for the antagonism of NMDA--inducedneurotoxicity. Table 3 summarizes the results obtained from the testing of representative compounds of the invention in the [^3 H]TCP radioreceptor assay as well as in the antagonism of NMDA-induced neurotoxicity in cultured neurons.
Background: Release of lactate dehydrogenase indicates damage to the cell membrane.

Molecules are shown by their SMILES.

Take `c1ccc2c(c1)C1CC(c3ccoc3)(c3ccoc3)C2c2cccc[n+]21` (single isomer, unassigned; (+)) [Example 40(b), (+)-6,11-ethano-12,12-di(3-furanyl)-6,11-dihydrobenzo[b]quinolizinium chloride 3/2 hydrate]: the “% Inhibition (± SEM) of infarct and penumbra region” value (“% Inhibition (± SEM)” below) in the experiment with rat ischemia model (0.01 mg test compound/kg/min) is listed as 1 ± 31%; in the experiment on rat ischemia model (0.03 mg test compound/kg/min), 49 ± 25%; with rat ischemia model (0.1 mg test compound/kg/min), 47 ± 18%. Moreover, the Ki (in general, a dissociation constant, usually derived from enzyme kinetics or from competition with a known ligand) on PCP receptor worked out at 1.66 nM. Also, the midpoint of inhibition in experiment [1] (Mus musculus, Cortical neurone), the IC50, lay at 20 nM.

For `c1ccc2c(c1)C1C3CCc4occc4C3(c3ccoc3)C2c2cccc[n+]21` (stereo not drawn) [7(b), 6,11[[5',4']-4'-(3-furyl)-4',5',6',7'-tetrahydrobenzofuryl]6,11-dihydrobenzo[b]quinolizinium hexafluorophosphate], at PCP receptor, the affinity, expressed as Ki, was 1.38 nM. The IC50 (in general, the concentration that inhibits the measured activity by half) in experiment [1] (Mus musculus, Cortical neurone) is 7.6 nM.

Take `[Cl-].c1ccc2c(c1)C1CC(c3ccoc3)(c3ccoc3)C2c2cccc[n+]21` (stereo not drawn) [39(c), 6,11-ethano-12,12-di(3-furanyl)-6,11-dihydrobenzo[b]quinolizinium chloride]: the “% Inhibition (± SEM)” value is given as 20 ± 7% in the experiment on rat ischemia model (0.03 mg test compound/kg/min) and 34 ± 6% in the experiment on rat ischemia model (0.1 mg test compound/kg/min). Also, at PCP receptor, the Ki turned out to be 1.79 nM. In experiment [1] (Mus musculus, Cortical neurone), this molecule returned a half-inhibitory concentration (IC50) of 45.4 nM.

Regarding `c1ccc2c(c1)-c1ccccc1C21CC2c3ccccc3C1c1cccc[n+]12` (stereo not drawn) [58(c), 6,11-ethano-12,12-spiro-9H-fluorenyl-6,11-dihydrobenzo[b]quinolizinium chloride], the “[3H]TCP percent inhibition @ 10 μm” value with PCP receptor (inhibition of [3H]TCP binding at 10 μM) amounted to 32%. The IC50 in experiment [1] (Mus musculus, Cortical neurone) was greater than 1000 nM.

The molecule `Fc1ccc2c(c1)C1c3cccc[n+]3C2CC1(c1ccoc1)c1ccoc1.[O-][Cl+3]([O-])([O-])[O-]` (stereo not drawn) [196(c), 12,12-di(3-furyl)-9-fluoro-6,11-ethano-6,11-dihydrobenzo[b]quinolizinium perchlorate] yielded an inhibition constant Ki on PCP receptor of 4.11 nM. Also, it took 80 nM to reach half-maximal inhibition in experiment [1] (Mus musculus, Cortical neurone) (IC50).

The molecule `c1ccc2c(c1)CC1C3c4ccccc4C(c4cccc[n+]43)C21c1ccoc1` (stereo not drawn) [6(d), 6.11[[2',3']-3'-(3-furyl)indanyl]6,11-dihydrobenzo[b]quinolizinium chloride] registered a Ki on PCP receptor of 1.2 nM. For the same molecule, the midpoint of inhibition in experiment [1] (Mus musculus, Cortical neurone), the IC50, lay at 244 nM.

At PCP receptor, `Oc1ccc2c(c1)C1c3cccc[n+]3C2CC1(c1cc[nH]n1)c1cc[nH]n1` (stereo not drawn) [195(c), 12,12-di(pyrazol-3-yl)-9-hydroxy-6,11-ethano-6,11-dihydrobenzo[b]quinolizinium chloride] yielded a Ki of 12.6 nM. The molecule further showed an IC50 in experiment [1] (Mus musculus, Cortical neurone) of 30.8 nM.

At PCP receptor, `c1coc(C2(c3ccco3)CC3c4ccccc4C2c2cccc[n+]23)c1` (stereo not drawn) [57(d), 6,11-ethano-12,12-di(2-furanyl)-6,11-dihydrobenzo[b]quinolizinium chloride] displayed a Ki of 1.9 nM. Besides, the half-inhibitory concentration (IC50) in experiment [1] came out at 36 nM.

`CC12CC(c3cccs3)(c3cccs3)C(c3ccccc31)c1cccc[n+]12` (stereo not drawn) [47(d), 6,11-ethano-12,12-di(2-thienyl)-6-methyl-6,11-dihydrobenzo[b]quinoliziniumchloride]: on PCP receptor, the affinity, expressed as Ki, was 2.11 nM. The molecule also gave a half-maximal inhibitory concentration (IC50) in experiment [1] (Mus musculus, Cortical neurone) of 40 nM.

The molecule `c1ccc2c(c1)C1CC(c3ccn[nH]3)(c3ccn[nH]3)C2c2cccc[n+]21` (stereo not drawn) [64(f), 11-ethano-12,12-di-[(pyrazol-5-yl)-6,11-dihydrobenzo[b]quinolizinium chloride] came in with an inhibition constant Ki at PCP receptor of 13 nM. For the same molecule, inhibition in experiment [1] was half-maximal at 360 nM (IC50).

Take `Oc1cccc2c1C1c3cccc[n+]3C2CC1(c1ccoc1)c1ccoc1.[Cl-]` (stereo not drawn) [Example 68(c), 6,11-ethano-12,12-di(3-furyl)-10-hydroxy-6,11-dihydrobenzo[b]quinoliziniumchloride]: the “% Inhibition (± SEM)” value in the experiment with rat ischemia model (0.1 mg test compound/kg/min) is 34 ± 14%. The molecule also returned an inhibition constant (Ki) on PCP receptor of 1.5 nM.

`CCOC1(c2ccoc2)CC2c3ccccc3C1c1cccc[n+]12` (stereo not drawn) [11(F), 6,11-ethano-12-(3-furyl)-12-ethoxy-6,11-dihydrobenzo[b]quinolizinium chloride] showed an inhibitory constant (Ki) on PCP receptor of 73 nM. Further, the 50% inhibitory concentration (IC50) in experiment [1] (Mus musculus, Cortical neurone) came out at 2550 nM.

Consider `c1ccc(C2(c3ccccc3)CC3c4ccccc4C2c2cccc[n+]23)cc1` (stereo not drawn) [17(b), 6,11-ethano-12,12-diphenyl-6,11-dihydrobenzo[b]quinolizinium chloride], for which the Ki at PCP receptor was determined as 8.18 nM. Besides, half-maximal inhibition in experiment [1] (IC50) was put at 197 nM.

With `c1ccc2c(c1)C1CC(c3ccn[nH]3)(c3ccn[nH]3)C2c2cccc[n+]21` (stereo not drawn) [63(d), 6,11-ethano-12,12-di(5-pyrazolyl)-6,11-dihydrobenzo[b]quinoliziniumperchlorate], the inhibition constant Ki at PCP receptor was determined as 10 nM. In experiment [1], it took 1630 nM to reach half-maximal inhibition (IC50).
